Results published in US4092426A, “Novel aminobenzoic acid derivatives, process for preparing the same and pharmaceutical composition containing the same” (Chugai Seiyaku Kabushiki Kaisha, priority 1975, dated 1978).

Experiments:
triglyceride in liver = test: Action for decreasing triglyceride in liver (ethanol-induced); format: in vivo, Sprague Dawley strain female rats; conditions: Rattus norvegicus, po, 24 h, oral 100 mg/kg, 30 min before ethanol 6 g/kg, read-out: % Prevention (of increase in triglyceride content in the liver)
Description: Sprague Dawley strain female rats each weighing 170 - 200 g which had been fasted for 15 hours were divided into groups of 4 rats each. The rats were orally administered a different test compound in a dose of 100 mg/kg, and 30 minutes after the administration, orally administered ethanol in a dose of 6 g/kg. Twenty-four hours after the administration of ethanol, the liver of each rat was taken out and neutral lipid level in the liver was measured in a conventional manner to calculate the ratio of preventing an increase in triglyceride content in the liver. For a control group, ethanol and, for the other control group, a glucose aqueous solution equivalent in calorific value to the same amount of ethanol were used and the same manner as those of test groups, and for the positive control group, commercially available 2-mercaptopropionylglycine was used instead of the test compound.
*The % prevention was calculated by the following

[1] = test system: Pseudomonas aeruginosa Pa-II; test: Activity for Protecting from Infection by Bucillus Pyocyaneous, with carbenicillin; format: in vivo; conditions: mouse, test compound (combination arm) 2 mg/head oral; for Number of Survival Animals/Number of Tested Animals: 54 hours
Description: As test animals, ddY strain male mice (5 week old) which were divided into groups of 9 members each were used. Each mouse was intraperitoneally administered with 10^6 Pseudomonas aeruginosa Pa-II, and 1.5 hours after the administeration, subcutaneously administered one shot of carbenicillin, an antibiotic. The test compound, disodium salt of N-2'-carboxyphenyl-4-chloroanthranilic acid, was orally administered once a day in a dose of 2 mg/head one and two days before the inoculation, respectively. The activity of the test compound was evaluated by observing the test animals for 54 hours after the inoculation.

[2] = test system: plaque forming cells (PFC) in the spleen; test: Activity for Recovering Immune Depletion by cortisone: plaque forming cells (PFC) in the spleen; format: in vivo, IV CS strain male mice; conditions: cortisone 60 mg/kg i.p. alone
Description: As test animals, IV CS strain male mice (5 week old) were used by dividing them into groups of 5 members each. Each mouse was intraperitoneally administered with cortisone in a dose of 60 mg/kg once a day for 5 days. Three days after the first administration, the sensitization with an antigen, sheep red blood cell (SRBC), was made by injecting the antigen into the mouse through the tail vein. Each mouse was orally administered with the test compound, disodium salt of N-2'-carboxyphenyl-4-chloroanthranilic acid, a day after the sensitization. Five days after the sensitization, the number of plaque forming cells (PFC) in the spleen was measured in a usual manner.

[3] = test system: concentration of BSP in blood; test: Bromosulfophthalein (BSP) Test; format: in vivo, Sprague Dawley strain female rats; conditions: rat, oral 100 mg/kg; BSP 28 mg/head i.v.; 30 min after; ** P<0.01
Description: Sprague Dawley strain female rats each weighing 150 - 190 g which had been fasted for 15 hours were divided into groups of 4 rats each. The rats were orally administered a different test compound in a dose of 100 mg/kg, and 60 minutes after the administration, each of the rats was injected through the tail vein with 28 mg/head of BSP. Thirty minutes after the injection, the blood of each rat was sampled from the heart and the concentration of BSP was determined in a conventional colorimetric manner. As control, a physiological saline solution was orally administered instead of the test compound.

[4] = test system: concentration of ICG in the blood; test: Indocyanogree (ICG) Test; format: in vivo, Sprague Dawley strain male rats; conditions: rat, oral 100 mg/kg; ICG 2 mg/head i.v.; 15 min after; ** P<0.02
Description: Sprague Dawley strain male rats weighing 180 - 210 g which had been fasted for 15 hours were divided into groups of 4 rats each. The rats were orally administered a different test compound in a dose of 100 mg/kg, and 60 minutes after the administration, each of the rats was injected through the tail vein with 2 mg/head of ICG. Fifteen minutes after the injection, the blood of each rat was sampled from the heart and the concentration of ICG in the blood was determined in a conventional colorimetric manner. As control, a physiological saline solution was used.

[5] = test system: concentration of bilirubin in the blood; test: Bilirubin Excretion Activity; format: in vivo, Sprague Dawley strain female rats; conditions: rat, oral 100 mg/kg; bilirubin i.v.; 20 min after; ** P<0.02
Description: Sprague Dawley strain female rats each weighing 160 - 200 g which had been fasted for 15 hours were divided into groups of 6 rats each. The rats were orally administered with a different test compound in a dose of 100 mg/kg, and 60 minutes after the administration, each of the rats was injected through the tail vein with […] of bilirubin. Twenty minutes after the injection, the blood of each rat was sampled from the heart and the concentration of bilirubin in the blood was determined in a conventional manner.
As control, a physiological saline solution was used instead of the test compound.

plaque forming cells = test: Increase in Number of Plaque Forming Cells after sensitization with SRBC (Jerne's plaque method); format: in vivo, Sprague Dawley strain male rats
Description: (§1) Sprague Dawley strain male rats weighing 200 - 220 g which were divided into 7 groups of 5 or 6 rats each were used as test animals.
(§2) The six groups were orally administered by one shot with the test compound, N-2'-carboxyphenyl-4-chloroanthranilic acid in a dose of 100 mg/kg on six different days, a day before the sensitization, on the date, a day after, two days after, three days after and four days after the sensitization with an antigen (SRBC: Sheep red blood cell). The SRBC was intraveneously injected in the rat through the tail vein in an amount of 1 ml as a 2% aqueous suspension. For control groups, a physiological saline solution was used in the same amount and in the same manner as those of the test groups on the day of sensitization.
(§3) Five days after the sensitization, the rats were sacrificed and the spleen of each of the rats was taken out and the blood was sampled.
(§4) The number of plaque forming cells and titers in blood were determined by the Jerne's plaque method and a hemolysing method, respectively.

antibody in blood = test: Titer of Antibody in Blood after sensitization with SRBC (hemolysing method); format: in vivo, Sprague Dawley strain male rats; conditions: administered on the day and a day after the sensitization with SRBC
Description: as §1, §2, §3, §4

Acute Toxicity = test: Acute Toxicity; design: species or system Wistar-Imamichi strain male and female rats; conditions: rat, in vivo, po, suspension in 5% gum arabi
Description: Acute toxicity of N-2'-carboxyphenyl-4-chloroanthranilic acid was determined using Wistar-Imamichi strain male and female rats (11 week old) as test animals. The test compound was orally administered as a suspension in a 5% gum arabi aqueous solution.

CC(S)C(=O)NCC(=O)O (stereo not shown) [2-mercaptopropionylglycine, reference compound]
inhibition in vivo at 100 mg/kg (triglyceride in liver): 9.3%

CC1(C)S[C@@H]2[C@H](NC(=O)C(C(=O)O)c3ccccc3)C(=O)N2[C@H]1C(=O)O (stereo partly shown) [Carbenicillin, carbenicillin]
Number of Survival Animals/Number of Tested Animals ([1]; Carbenicillin 10 mg/head s.c.): 0/9
Number of Survival Animals/Number of Tested Animals ([1]; Carbenicillin 20 mg/head s.c.): 2/9
Number of Survival Animals/Number of Tested Animals ([1]; Carbenicillin 40 mg/head s.c.): 9/9
ED50 (dose of carbenicillin) ([1]; 10^6 Pseudomonas aeruginosa Pa-II i.p.): 24.1 mg/head

C[C@]12CCC(=O)C=C1CC[C@@H]1[C@@H]2C(=O)C[C@@]2(C)[C@H]1CC[C@]2(O)C(=O)CO [Cortisone, cortisone, reference compound]
number of PFC per spleen vs control without cortisone [2]: reduced to one third

Cc1ccc(C)c(C(=O)O)c1Nc1cc(Cl)ccc1C(=O)O [N-2'-carboxy-3',6'-dimethylphenyl-4-chloroanthranilic acid]
inhibition in vivo at 100 mg/kg (triglyceride in liver): 45.8%

Cc1ccc(Nc2cc(Cl)ccc2C(=O)O)c(C(=O)O)c1 [N-2'-carboxy-4'-methylphenyl-4-chloroanthranilic acid]
inhibition in vivo at 100 mg/kg (triglyceride in liver): 53.2%

O=C(O)c1ccc(Cl)cc1Nc1cc(Cl)ccc1C(=O)O [N-2'-carboxy-5'-chlorophenyl-4-chloroanthranilic acid]
inhibition in vivo at 100 mg/kg (triglyceride in liver): 57.2%

Cc1cccc(C(=O)O)c1Nc1cc(Cl)ccc1C(=O)O [N-2'-carboxy-6'-methylphenyl-4-chloroanthranilic acid]
inhibition in vivo at 100 mg/kg (triglyceride in liver): 25.2%

Cc1c(Cl)ccc(C(=O)O)c1Nc1ccccc1C(=O)O [N-2'-carboxyphenyl-4-chloro-3-methylanthranilic acid]
inhibition in vivo at 100 mg/kg (triglyceride in liver): 40.5%

O=C(O)c1ccccc1Nc1cc(Cl)ccc1C(=O)O [N-2'-carboxyphenyl-4-chloroanthranilic acid]
inhibition in vivo at 100 mg/kg (triglyceride in liver): 67.1%
% Remain of BSP [3]: 17.3±8.4%
% Remain of ICG [4]: 5.1 ± 0.2%
% Remain of Bilirubin [5]: 39.7 ± 13.3%
Number of plaque forming cell/10^6 cells (plaque forming cells; 100 mg/kg oral, day 0 based on the sensitization, P<0.01): 193.4 ± 26.6 cell/10^6 cells
Number of plaque forming cell/10^6 cells (plaque forming cells; 100 mg/kg oral, day +1 based on the sensitization, P<0.01): 316.8 ± 38.2 cell/10^6 cells
Number of plaque forming cell/10^6 cells (plaque forming cells; 100 mg/kg oral, day +2 based on the sensitization): 76.5 ± 16.3 cell/10^6 cells
Number of plaque forming cell/10^6 cells (plaque forming cells; 100 mg/kg oral, day +3 based on the sensitization): 101.0 ± 11.2 cell/10^6 cells
Number of plaque forming cell/10^6 cells (plaque forming cells; 100 mg/kg oral, day +4 based on the sensitization): 95.5 ± 35.3 cell/10^6 cells
Number of plaque forming cell/10^6 cells (plaque forming cells; 100 mg/kg oral, day -1 based on the sensitization, control 49.7 ± 16.0): 93.2 ± 28.6 cell/10^6 cells
increase in number of plaque forming cells relative to control group (plaque forming cells; 100 mg/kg oral, maximum vs control): about six times as much as the value of the control group
increase in the number of plaque forming cells (plaque forming cells; administered on the date and a day after the sensitization): significant increase
increase in titers in blood (antibody in blood): significant increase
LD50 (Acute Toxicity; female rat): 2600 mg/kg
LD50 (Acute Toxicity; male rat): 2100 mg/kg

O=C(O)c1ccccc1Nc1ccc(Cl)cc1C(=O)O [N-2'-carboxyphenyl-5-chloroanthranilic acid]
inhibition in vivo at 100 mg/kg (triglyceride in liver): 30%

Cc1ccc(Nc2ccccc2C(=O)O)c(C(=O)O)c1 [N-2'-carboxyphenyl-5-methylanthranilic acid]
inhibition in vivo at 100 mg/kg (triglyceride in liver): 20.1%
